{"source": "patent US12011443B2", "about": "“Pharmaceutical composition for preventing or treating nonalcoholic steatohepatitis” (J2H BIOTECH INC., priority 2018, dated 2024)", "key": {"[1]": {"conditions": "clinical trials; cited from earlier work"}, "[2]": {"system": "non-alcoholic steatohepatitis C57BL/6 mouse model induced by the methionine and choline deficient (MCD) diet", "assay": "Non-alcoholic steatohepatitis treatment model (MCD diet), 6 weeks repeated oral administration", "format": "in vivo, C57BL/6 mice", "conditions": "for LDL level (blood biochemical test) / oil red O staining area level: p<0.01", "text": "The MCD model, which is an animal model of steatohepatitis, was used. C57BL/6 mice were supplied with a MCD (methionine-choline deficient) diet for 5 days, followed by a normal diet for 2 days. In this way, for 10 weeks, the MCD diet and normal diet were alternately supplied. Animals were identified using tail marks during the acclimatization period (blue), dosing and observation period (red). Individual identification cards, distinguished by color, were attached to the breeding box, and an animal room usage record was attached to the entrance of the breeding room.\nDuring the acclimatization period, blood biochemical tests and body weight measurements were performed. Mice were randomly distributed so that the average of each group was distributed as uniformly as possible according to the ranked ALT and body weight levels. [10 animals in the normal feed group (G1), 40 animals in the MCD diet group (G2-G5)]\nThe improvement effect that appeared when the test compound was repeatedly administered for 6 weeks to the non-alcoholic steatohepatitis C57BL/6 mouse model induced over 10 weeks with the MCD diet was evaluated. Test compound was administered once a day for 6 weeks. As a positive control, obeticholic acid (hereinafter referred to as OCA), which is currently undergoing a phase 3 clinical trial with non-alcoholic steatohepatitis as an indication, was used.\nIn the case of a control compound (obeticholic acid, 10 mg/kg/day), an appropriate amount was weighed and then diluted in sterile distilled water and administered. In the case of the test compound, after weighing the appropriate amount, it was diluted with 0.5 wt % methyl cellulose aqueous solution to which 1 wt % Tween 80 was added. During oral administration, the weight of the mouse was measured, and the animals were fixed using the cervical skin fixation method, and each test compound was administered using a sonde for oral administration.\nIt was measured at the start of administration, and once a week and on the day of autopsy after the start of administration.\nIt was measured right before the start of administration, and once a week after the start of administration of the test compound. As for the measurement method, the remaining amount of feed was measured per unit of breeding box next day after quantitative feeding, the difference was calculated, and the average intake per mouse was calculated.\nThe following items were tested using a blood biochemical analyzer (7180 Hitachi, Japan) with blood collected and separated at right before and the 6th week (the day of autopsy) after administration of the test compound.\nSix weeks after administration of the test compound: ALT (alanine transaminase), AST (aspartate transaminase), TG (triglyceride), TCHO (total cholesterol), HDL (high-density lipoprotein), LDL (low-density lipoprotein), GGT (Gamma-glutamyltransferase), LDH (Lactate dehydrogenase)\nOn the day of autopsy, pimonidazole was diluted in saline at a concentration of 30 mg/ml, and then administered intravenously at a dose of 60 mg/kg. Animals were euthanized 90 minutes after administration. At each autopsy, the animals were inhaled with ether, and when anesthesia was confirmed, blood was collected from the posterior vena cava using a syringe. Thereafter, the abdominal aorta and posterior vena cava were cut, bleeding, and killed. Blood was injected into a vacutainer tube containing a clot activator, allowed to stand at room temperature for about 15 minutes to coagulate, and then centrifuged at 3,000 rpm for 10 minutes to separate the serum. Serum was stored in a deep freezer set at −70° C. or lower before analysis, and was used for blood biochemical tests.\nAt autopsy, the liver was excised and weighed, the right lobe of the liver was fixed in 10% neutral buffered formalin solution, and the left lobe was divided into half and rapidly frozen using liquid nitrogen. The quick-frozen specimens were stored in a cryogenic freezer set at −70° C. or lower until ELISA analysis. […]"}, "[3]": {"system": "non-alcoholic steatohepatitis prevention model, MCD feed, mice (C57BL/6)", "assay": "Non-alcoholic steatohepatitis prevention model (MCD feed with simultaneous administration for 12 weeks)", "format": "in vivo", "conditions": "12 weeks with MCD feed, vs vehicle control group (G2)", "description": "The efficacy of the test compound for preventing non-alcoholic steatohepatitis was evaluated. Using 7-week-old mice (C57BL/6), the normal group (G1) was supplied with general feed, and the vehicle control group (G2), positive control group (G3), and test groups (G4, G5) were supplied with the MCD feed for 12 weeks. Simultaneously with the MCD diet, test compounds and controls were administered orally once a day. Mice were divided into five groups, and a total of 75 mice, 15 mice per each group, were used for the experiment.\nIn order to evaluate the prophylactic efficacy, the test compound was administered for 12 weeks at the same time as induction with the MCD diet, and the efficacy of the test compound for the prevention of steatohepatitis was evaluated.\nEach appropriate amount of the control compound (Obeticholic acid, 10 mg/kg/day) and the test compound was weighed, and then diluted in 0.5 wt % methyl cellulose aqueous solution to which 1 wt % Tween 80 was added. During oral administration, the weight of the mouse was measured, and the animals were fixed using the cervical skin fixation method, and each test substance was administered using a sonde for oral administration. […]"}, "[4]": {"assay": "Tissue concentration after oral administration to the mouse", "format": "in vivo", "conditions": "2 hours after oral administration"}, "[5]": {"conditions": "single administration and combined administration with metformin; cited from earlier work"}, "[6]": {"conditions": "10 mg/kg/day (G4), vs vehicle control group (G2)"}, "[7]": {"conditions": "30 mg/kg/day (G5), vs vehicle control group (G2)"}}, "data": [{"smiles": "CC[C@H]1[C@@H](O)[C@@H]2[C@H](CC[C@]3(C)[C@@H]([C@H](C)CCC(=O)O)CC[C@@H]23)[C@@]2(C)CC[C@@H](O)C[C@@H]12", "note": "[OCA, obeticholic acid]", "values": [{"measurement": "subjects showing stomach pain and fatigue", "setting": "[1]", "result": "more than 10%"}, {"measurement": "subjects with side effects like irregular heartbeat, dry skin, constipation, joint pain, peripheral edema, sore throat, thyroid hormone irregularity, rash", "setting": "[1]", "result": "about 10%"}]}, {"smiles": "C[C@@H]1CN(c2ccc(S(C)(=O)=O)cc2F)CCN1c1nccc(C(=O)N[C@H]2C3CC4CC2C[C@](O)(C4)C3)n1", "note": "[Chemical Formula 1, 2-((R)-4-(2-fluoro-4-(methylsulfonyl)phenyl)-2-methylpiperazin-1-yl)-N-((1R,2s,3S,5S,7S)-5-hydroxyadamantan-2-yl)pyrimidine-4-carboxamide]", "values": [{"measurement": "ALT level (blood biochemical test)", "setting": "[2]; 10 mg/kg/day (G3, G4) oral once a day, vs vehicle control group (G2), p<0.05", "result": "significantly lower"}, {"measurement": "Hydroxyproline expression area level", "setting": "[2]; 10 mg/kg/day (G3, G4), vs normal control group (G1), p<0.001 or p<0.05", "result": "significantly higher"}, {"measurement": "Hydroxyproline expression area level", "setting": "[2]; 10 mg/kg/day (G3, G4), vs vehicle control group (G2), p<0.001 or p<0.01", "result": "significantly lower"}, {"measurement": "TCHO level in liver tissue (ELISA)", "setting": "[2]; [6]", "result": "significantly lower"}, {"measurement": "TG level in liver tissue (ELISA)", "setting": "[2]; [6]", "result": "significantly lower"}, {"measurement": "LDL level (blood biochemical test)", "setting": "[2]; 10 mg/kg/day (G4), vs vehicle control group (G2) and positive control group (G3)", "result": "significantly lower"}, {"measurement": "oil red O staining area level", "setting": "[2]; 10 mg/kg/day (G4), vs vehicle control group", "result": "significantly lower"}, {"measurement": "ALT level (blood biochemical test)", "setting": "[2]; 30 mg/kg/day (G5) oral once a day, vs vehicle control group (G2), p<0.001 or p<0.05", "result": "significantly lower"}, {"measurement": "TCHO level in liver tissue (ELISA)", "setting": "[2]; [7]", "result": "significantly lower"}, {"measurement": "TG level in liver tissue (ELISA)", "setting": "[2]; [7]", "result": "significantly lower"}, {"measurement": "LDL level (blood biochemical test)", "setting": "[2]; 30 mg/kg/day (G5), vs vehicle control group (G2) and positive control group (G3)", "result": "significantly lower"}, {"measurement": "relative liver weight level", "setting": "[2]; 30 mg/kg/day (G5), vs vehicle control group (G2) and positive control group (G3), p<0.01 or p<0.05", "result": "significantly lower"}, {"measurement": "Hydroxyproline expression area level", "setting": "[2]; 30 mg/kg/day (G5), vs vehicle control group (G2), p<0.001 or p<0.01", "result": "significantly lower"}, {"measurement": "AST level (blood biochemical test)", "setting": "[2]; 30 mg/kg/day (G5), vs vehicle control group (G2), p<0.001 or p<0.05", "result": "significantly lower"}, {"measurement": "liver weight level (absolute)", "setting": "[2]; 30 mg/kg/day (G5), vs vehicle control group (G2), p<0.05", "result": "significantly lower"}, {"measurement": "oil red O staining area level", "setting": "[2]; 30 mg/kg/day (G5), vs vehicle control group", "result": "significantly lower"}, {"measurement": "microvesicular steatosis level (histopathology)", "setting": "[2]; 30 mg/kg/day (G5), vs vehicle control group, p<0.05", "result": "significantly lower"}, {"measurement": "effect of alleviating non-alcoholic steatohepatitis", "setting": "[2]; 30 mg/kg/day, compared to positive control compound", "result": "superior"}, {"measurement": "blood biochemistry, liver relative weight, TG and TCHO content in liver tissue, and microvesicular steatosis level", "setting": "[2]; high dose administration group, vs positive control group", "result": "lower than those of the positive control group"}, {"measurement": "LDH (FIG. 2)", "setting": "[2]; high-dose administration group, compared to normal group", "result": "concentration similar to that of the normal group"}, {"measurement": "levels of inflammation (histopathology)", "setting": "[2]; test compound administration group, vs vehicle control group", "result": "lower levels of inflammation"}, {"measurement": "LDH (FIG. 2)", "setting": "[2]; test compound groups, compared to the positive control group", "result": "tends to decrease LDH"}, {"measurement": "triglycerides in liver tissue", "setting": "[3]; 10 mg/kg/day (G3, G4) oral once a day", "result": "statistically significant decrease"}, {"measurement": "triglycerides in liver tissue", "setting": "[3]; 30 mg/kg/day (G5) oral once a day", "result": "statistically significant decrease"}, {"measurement": "concentration of the liver tissue compared with plasma concentration", "setting": "[4]", "result": "higher than the plasma concentration"}, {"measurement": "efficacy as therapeutic agent for type 2 diabetes", "setting": "[5]", "result": "did not show sufficient efficacy"}]}]}
